Earlier results in patent US12636273B2, “Compositions for pathogenesis-directed therapy and treatments of skin diseases and disorders” (YALE UNIVERSITY, priority 2019, dated 2026).

Test system: CHILD syndrome skin lesions
Conditions: topical application

In the case of `CC(C)CCC[C@@H](C)[C@H]1CC[C@H]2[C@@H]3CC=C4C[C@@H](O)CC[C@]4(C)[C@H]3CC[C@]12C` [cholesterol], the “effect on skin lesions / phenotype” value is given as “did not correct the phenotype”.
